Results on 16 compounds are retold here after patent US20230203059A1, “MACROCYCLIC JAK INHIBITOR AND USES THEREOF” (Biopolar Hongye (Guangdong) Pharmaceutical Co. Ltd., priority 2020, published 2023).

Format in all cases: biochemical
In one assay the target is T1, JAK3 (Homo sapiens, UniProt P52333).
T1 sequence (P52333 1-1124): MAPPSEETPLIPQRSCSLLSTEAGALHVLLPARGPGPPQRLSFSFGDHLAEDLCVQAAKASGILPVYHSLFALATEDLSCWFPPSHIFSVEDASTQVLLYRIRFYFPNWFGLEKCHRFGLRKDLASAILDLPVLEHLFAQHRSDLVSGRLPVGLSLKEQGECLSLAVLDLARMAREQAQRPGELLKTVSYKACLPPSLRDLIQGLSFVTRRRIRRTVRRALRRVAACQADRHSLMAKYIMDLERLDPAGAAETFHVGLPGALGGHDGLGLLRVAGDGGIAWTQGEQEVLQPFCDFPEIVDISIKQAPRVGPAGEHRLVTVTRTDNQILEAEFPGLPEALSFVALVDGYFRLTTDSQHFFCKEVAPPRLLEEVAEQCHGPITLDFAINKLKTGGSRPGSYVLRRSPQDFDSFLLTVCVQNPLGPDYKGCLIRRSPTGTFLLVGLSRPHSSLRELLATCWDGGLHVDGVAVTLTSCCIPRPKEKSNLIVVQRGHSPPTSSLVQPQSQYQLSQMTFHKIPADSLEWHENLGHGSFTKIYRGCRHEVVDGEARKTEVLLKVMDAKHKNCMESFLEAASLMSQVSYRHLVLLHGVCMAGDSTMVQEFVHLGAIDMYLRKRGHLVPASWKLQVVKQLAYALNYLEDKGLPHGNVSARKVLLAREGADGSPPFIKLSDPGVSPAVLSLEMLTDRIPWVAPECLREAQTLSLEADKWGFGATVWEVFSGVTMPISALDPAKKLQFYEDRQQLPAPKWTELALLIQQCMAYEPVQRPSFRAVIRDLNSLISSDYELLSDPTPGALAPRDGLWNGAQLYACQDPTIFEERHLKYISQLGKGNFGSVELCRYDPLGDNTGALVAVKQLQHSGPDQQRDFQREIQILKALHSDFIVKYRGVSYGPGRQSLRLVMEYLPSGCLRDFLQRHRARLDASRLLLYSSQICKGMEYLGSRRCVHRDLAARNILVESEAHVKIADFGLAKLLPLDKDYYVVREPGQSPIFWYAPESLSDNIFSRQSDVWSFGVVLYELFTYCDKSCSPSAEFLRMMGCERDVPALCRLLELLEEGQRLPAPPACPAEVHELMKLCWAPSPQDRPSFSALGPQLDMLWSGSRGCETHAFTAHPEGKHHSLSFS
The experiment in a line: JAK kinase activity, homogeneous time-resolved fluorescence (JAK3 reaction system). The settings on record: ATP 2 μM, JAK3 protein 0.04 ng/μL; read-out: JAK 3 activity.

A further assay addresses TYK2 (Homo sapiens, UniProt P29597). The experiment in a line: JAK kinase activity, homogeneous time-resolved fluorescence (TYK2 reaction system). As to conditions: ATP 2 μM, TYK2 protein 0.2 ng/μL; read-out: TYK 2 activity. The method, boiled down:
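Activity read as the 665 nm/615 nm ratio after adding EDTA-containing detection mix with anti-phospho-substrate antibody and XL-615. Beforehand, 0.2 ng/μL TYK2, 2 μM ATP, substrate and compound reacted 1 h in pH 7.0 Hepes buffer with MgCl2 and DTT. IC50 fitted with Hill-slope equation.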

In the next assay the target is JAK2 (Homo sapiens, UniProt O60674). The experiment in a line: JAK kinase activity, homogeneous time-resolved fluorescence (JAK2 reaction system). As to conditions: ATP 2 μM, JAK2 protein 0.01 ng/μL. A digest of the protocol: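 IC50 derived by Hill-equation fit of the 665/615 nm time-resolved fluorescence ratio after EDTA-containing detection mix with anti-phosphosubstrate antibody. Preceding 1 h reaction contained 2 μM ATP, 0.01 ng/μL JAK2, substrate, 50 mM Hepes pH 7.0, 5 mM MgCl2, 1 mM DTT.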
Sequence of JAK2 (O60674 whole entry): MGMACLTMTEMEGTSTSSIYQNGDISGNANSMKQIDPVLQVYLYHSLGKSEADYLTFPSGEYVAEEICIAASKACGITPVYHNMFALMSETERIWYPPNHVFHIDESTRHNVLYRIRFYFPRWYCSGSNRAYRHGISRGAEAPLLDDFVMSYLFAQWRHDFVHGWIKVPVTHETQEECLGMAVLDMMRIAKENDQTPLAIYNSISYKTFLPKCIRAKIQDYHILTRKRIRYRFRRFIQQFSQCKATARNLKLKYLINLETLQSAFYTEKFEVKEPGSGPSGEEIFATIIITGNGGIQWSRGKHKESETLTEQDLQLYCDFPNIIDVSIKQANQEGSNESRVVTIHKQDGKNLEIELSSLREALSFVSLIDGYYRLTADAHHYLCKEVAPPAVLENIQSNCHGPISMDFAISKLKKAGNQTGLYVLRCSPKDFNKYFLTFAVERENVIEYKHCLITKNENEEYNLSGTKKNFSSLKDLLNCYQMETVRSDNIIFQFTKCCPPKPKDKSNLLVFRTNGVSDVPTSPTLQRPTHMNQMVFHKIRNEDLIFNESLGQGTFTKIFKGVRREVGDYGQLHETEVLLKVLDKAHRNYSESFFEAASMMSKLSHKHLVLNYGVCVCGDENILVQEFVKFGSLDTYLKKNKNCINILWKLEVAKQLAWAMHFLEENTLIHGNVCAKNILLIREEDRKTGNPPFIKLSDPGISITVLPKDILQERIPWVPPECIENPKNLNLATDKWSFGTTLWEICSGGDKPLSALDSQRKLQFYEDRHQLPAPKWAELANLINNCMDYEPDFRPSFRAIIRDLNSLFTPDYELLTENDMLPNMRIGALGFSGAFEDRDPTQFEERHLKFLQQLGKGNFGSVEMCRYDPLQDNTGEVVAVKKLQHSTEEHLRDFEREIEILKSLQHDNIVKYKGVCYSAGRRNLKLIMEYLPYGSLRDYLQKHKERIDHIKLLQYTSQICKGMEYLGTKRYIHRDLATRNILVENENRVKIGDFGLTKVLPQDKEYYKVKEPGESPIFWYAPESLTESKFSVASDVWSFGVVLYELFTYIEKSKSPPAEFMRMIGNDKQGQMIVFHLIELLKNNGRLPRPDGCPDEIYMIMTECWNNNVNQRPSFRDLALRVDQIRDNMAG

A further assay addresses JAK1 (Homo sapiens, UniProt P23458). The experiment in a line: JAK kinase activity, homogeneous time-resolved fluorescence (JAK1 reaction system). The settings on record: ATP 2 μM, JAK1 protein 0.2 ng/μL; read-out: JAK 1 activity. The method, boiled down: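 Kinase activity read as the 665 nm/615 nm time-resolved fluorescence ratio (320 nm excitation) after EDTA-containing antibody and XL-615 addition. Reaction ran 1 h at pH 7.0 (Hepes, MgCl2, DTT) with 0.2 ng/μL JAK1 and ATP at 2 μM. IC50 derived by Hill-slope fit.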

Sequence of TYK2 (P29597 whole entry): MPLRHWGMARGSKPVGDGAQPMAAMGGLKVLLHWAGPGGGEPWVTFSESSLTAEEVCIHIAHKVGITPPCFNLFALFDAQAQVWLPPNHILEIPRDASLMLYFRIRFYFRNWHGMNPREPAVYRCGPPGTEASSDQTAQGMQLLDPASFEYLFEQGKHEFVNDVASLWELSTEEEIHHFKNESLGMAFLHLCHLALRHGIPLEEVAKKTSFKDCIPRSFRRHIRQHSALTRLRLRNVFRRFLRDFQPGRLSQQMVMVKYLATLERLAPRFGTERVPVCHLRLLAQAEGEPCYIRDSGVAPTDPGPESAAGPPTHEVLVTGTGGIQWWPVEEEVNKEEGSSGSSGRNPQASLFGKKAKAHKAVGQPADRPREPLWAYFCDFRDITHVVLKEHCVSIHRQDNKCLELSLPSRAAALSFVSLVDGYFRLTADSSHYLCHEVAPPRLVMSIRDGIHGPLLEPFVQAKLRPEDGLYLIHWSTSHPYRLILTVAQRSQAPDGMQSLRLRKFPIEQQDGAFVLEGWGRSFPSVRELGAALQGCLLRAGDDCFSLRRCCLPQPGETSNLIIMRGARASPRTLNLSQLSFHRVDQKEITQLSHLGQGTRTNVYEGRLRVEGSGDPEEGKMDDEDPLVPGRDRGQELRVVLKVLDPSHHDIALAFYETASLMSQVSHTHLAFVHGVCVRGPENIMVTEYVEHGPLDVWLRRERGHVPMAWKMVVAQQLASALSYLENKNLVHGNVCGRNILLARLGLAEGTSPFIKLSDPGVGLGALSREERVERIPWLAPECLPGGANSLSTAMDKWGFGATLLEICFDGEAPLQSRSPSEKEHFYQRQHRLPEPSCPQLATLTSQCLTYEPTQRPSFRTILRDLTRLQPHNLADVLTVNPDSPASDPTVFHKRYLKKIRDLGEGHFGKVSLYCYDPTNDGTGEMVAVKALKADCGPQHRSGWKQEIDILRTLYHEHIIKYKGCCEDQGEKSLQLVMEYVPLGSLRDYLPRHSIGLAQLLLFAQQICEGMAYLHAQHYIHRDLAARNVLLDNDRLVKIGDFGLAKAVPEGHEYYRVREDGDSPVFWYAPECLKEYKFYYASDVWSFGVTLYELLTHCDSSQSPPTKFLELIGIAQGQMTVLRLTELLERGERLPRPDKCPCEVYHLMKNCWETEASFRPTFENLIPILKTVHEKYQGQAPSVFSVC
Sequence of JAK1 (P23458 whole entry): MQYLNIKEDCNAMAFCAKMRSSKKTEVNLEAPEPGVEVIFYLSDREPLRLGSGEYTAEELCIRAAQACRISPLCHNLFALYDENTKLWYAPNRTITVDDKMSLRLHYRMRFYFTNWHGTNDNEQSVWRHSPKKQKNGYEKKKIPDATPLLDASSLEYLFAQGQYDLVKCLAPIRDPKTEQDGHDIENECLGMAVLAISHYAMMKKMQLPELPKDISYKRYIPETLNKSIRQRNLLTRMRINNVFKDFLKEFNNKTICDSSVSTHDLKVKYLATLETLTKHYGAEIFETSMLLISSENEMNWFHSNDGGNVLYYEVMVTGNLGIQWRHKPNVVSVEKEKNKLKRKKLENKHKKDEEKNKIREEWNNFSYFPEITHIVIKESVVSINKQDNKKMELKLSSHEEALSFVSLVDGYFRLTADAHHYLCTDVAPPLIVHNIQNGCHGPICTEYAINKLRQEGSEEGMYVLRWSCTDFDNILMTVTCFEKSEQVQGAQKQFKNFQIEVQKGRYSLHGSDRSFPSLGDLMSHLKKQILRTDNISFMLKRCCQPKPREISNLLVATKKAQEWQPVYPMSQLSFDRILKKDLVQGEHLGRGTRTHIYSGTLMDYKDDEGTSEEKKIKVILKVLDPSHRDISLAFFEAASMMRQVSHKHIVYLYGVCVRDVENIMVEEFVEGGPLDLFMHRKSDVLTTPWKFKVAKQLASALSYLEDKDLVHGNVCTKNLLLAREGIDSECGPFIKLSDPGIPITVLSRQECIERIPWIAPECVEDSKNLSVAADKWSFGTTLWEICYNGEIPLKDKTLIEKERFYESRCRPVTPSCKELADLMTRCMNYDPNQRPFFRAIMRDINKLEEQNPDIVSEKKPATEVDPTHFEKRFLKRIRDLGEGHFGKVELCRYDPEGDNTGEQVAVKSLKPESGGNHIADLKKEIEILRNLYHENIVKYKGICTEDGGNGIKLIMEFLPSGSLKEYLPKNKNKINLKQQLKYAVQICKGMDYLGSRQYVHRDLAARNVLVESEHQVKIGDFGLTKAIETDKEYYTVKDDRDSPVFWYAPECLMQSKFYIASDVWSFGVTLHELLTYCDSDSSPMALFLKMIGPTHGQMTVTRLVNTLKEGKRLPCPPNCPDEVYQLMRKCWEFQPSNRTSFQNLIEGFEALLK

On to `O=C1NCCCCOCc2cc(ccc2OC2CCCOC2)Nc2nccc(n2)-c2ccc1cc2[N+](=O)[O-]` (stereo not shown) [Example 113, 1^2-nitro-4^4-((tetrahydro-2H-pyran-3-yl)oxy)-6-oxa-3,11-diaza-2(4,2)-pyrimidina-1(1,4),4(1,3)-dibenzena-cyclododecaphan-12-one], for which the IC50 is 101 to 1000 nM on JAK3, above 10000 nM at TYK2, 1000 to 10000 nM at JAK2 and 1000 to 10000 nM on JAK1.

On to `Nc1cc2ccc1-c1ccnc(n1)Nc1ccc(OC3CCCOC3)c(c1)COCCCCNC2=O` (stereo not shown) [Example 114, 1^2-amino-4^4-((tetrahydro-2H-pyran-3-yl)oxy)-6-oxa-3,11-diaza-2(4,2)-pyrimidina-1(1,4),4(1,3)-di-benzenacyclododecaphan-12-one], for which the IC50 on JAK3 was below 10 nM; at TYK2, 1000 to 10000 nM; on JAK2, 11 to 100 nM; on JAK1, 101 to 1000 nM.

Regarding `CC(C)COc1ccc2cc1COCCCCNC(=O)c1ccc(c([N+](=O)[O-])c1)-c1ccnc(n1)N2` [Example 115, 4^4-isobutoxy-1^2-nitro-6-oxa-3,11-diaza-2(4,2)-pyrimidina-1(1,4),4(1,3)-dibenzenacyclododecaphan-12-one], the IC50 on JAK3 is 101 to 1000 nM; on TYK2 it was above 10000 nM; against JAK2, 1000 to 10000 nM; on JAK1 it was 1000 to 10000 nM.

Regarding `CC(C)COc1ccc2cc1COCCCCNC(=O)c1ccc(c(N)c1)-c1ccnc(n1)N2` [Example 116, 1^2-amino-4^4-isobutoxy-6-oxa-3,11-diaza-2(4,2)-pyrimidina-1(1,4),4(1,3)-dibenzenacyclododecaphan-12-one], the IC50 at JAK3 is below 10 nM; at TYK2, 1000 to 10000 nM; against JAK2, 101 to 1000 nM; at JAK1, 101 to 1000 nM.

For `O=C1NCCCCOCc2cc(ccc2OCc2ccccc2)Nc2nccc(n2)-c2ccc1cc2[N+](=O)[O-]` [Example 117, 4^4-(benzyloxy)-1^2-nitro-6-oxa-3,1,1-diaza-2(4,2)-pyrimidina-1(1,4),4(1,3)-dibenzenacyclododecaphan-12-one], the IC50 on JAK3 is 101 to 1000 nM; on TYK2, above 10000 nM; at JAK2, above 10000 nM; at JAK1 it was 1000 to 10000 nM.

As to `Nc1cc2ccc1-c1ccnc(n1)Nc1ccc(OCc3ccccc3)c(c1)COCCCCNC2=O` [Example 118, 1^2-amino-4^4-(benzyloxy)-6-oxa-3,11-diaza-2(4,2)-pyrimidina-1(1,4),4(1,3)-dibenzenacyclododecaphan-12-one], the IC50 was 11 to 100 nM at JAK3, above 10000 nM on TYK2, 1000 to 10000 nM against JAK2 and 1000 to 10000 nM on JAK1.

In the case of `Nc1cc2ccc1-c1ccnc(n1)Nc1ccc(Oc3ccccc3F)c(c1)COCCCCNC2=O` [Example 119, 1^1-amino-4^4-(2-fluorophenoxy)-6-oxa-3,11-diaza-2(4,2)-pyrimidina-1(1,4),4(1,3)-dibenzenacyclo-dodecaphan-12-one], the IC50 at JAK3 is 11 to 100 nM; on TYK2 it was above 10000 nM; on JAK2, 1000 to 10000 nM; on JAK1, 1000 to 10000 nM.

Consider `O=C1NCCCCOCc2cc(ccc2OCC2CCC(F)(F)C2)Nc2nccc(n2)-c2ccc1cc2[N+](=O)[O-]` (stereo not shown) [Example 120, 4^4-((3,3-difluorocyclopentyl)meth-oxy)-1^2-nitro-6-oxa-3,11-diaza-2(4,2)-pyrimidina-1(1,4),4(1,3)-di-benzenacyclododecaphan-12-one], for which the IC50 was 101 to 1000 nM at JAK3, above 10000 nM on TYK2, 1000 to 10000 nM against JAK2 and 1000 to 10000 nM on JAK1.

For the compound `Nc1cc2ccc1-c1ccnc(n1)Nc1ccc(OCC3CCC(F)(F)C3)c(c1)COCCCCNC2=O` (stereo not shown) [Example 121, 1^2-amino-4^4-((3,3-difluorocyclo-pentyl)methoxy)-6-oxa-3,11-diaza-2(4,2)-pyrimidina-1(1,4),4(1,3)-di-benzenacyclododecaphan-12-one], the IC50 is below 10 nM on JAK3, 1000 to 10000 nM at TYK2, 101 to 1000 nM at JAK2 and 1000 to 10000 nM on JAK1.

Consider `O=C1NCCCCOCc2cc(ccc2OCC2Cc3ccccc3C2)Nc2nccc(n2)-c2ccc1cc2[N+](=O)[O-]` [Example 122, 4^4-((2,3-dihydro-1H-inden-2-yl)methoxy)-1^2-nitro-6-oxa-3,11-diaza-2(4,2)-pyrimidina-1(1,4),4(1,3)-dibenzenacyclododecaphan-12-one], for which the IC50 was 101 to 1000 nM at JAK3, above 10000 nM on TYK2, above 10000 nM against JAK2 and above 10000 nM on JAK1.

As for `Nc1cc2ccc1-c1ccnc(n1)Nc1ccc(OCC3Cc4ccccc4C3)c(c1)COCCCCNC2=O` [Example 123, 1^2-amino-4^4-((2,3-dihydro-1H-inden-2-yl)methoxy)-6-oxa-3,11-diaza-2(4,2)-pyrimidina-1(1,4),4(1,3)-dibenzenacyclododecaphan-12-one], the IC50 is 11 to 100 nM on JAK3, 1000 to 10000 nM at TYK2, 1000 to 10000 nM against JAK2 and 1000 to 10000 nM on JAK1.

Take `O=C1NCCCCOCc2cc(ccc2OCC2CCOC2)Nc2nccc(n2)-c2ccc1cc2[N+](=O)[O-]` (stereo not shown) [Example 124, 1^2-nitro-4^4-((tetrahydrofuran-3-yl)methoxy)-6-oxa-3,11-diaza-2(4,2)-pyrimidina-1(1,4),4(1,3)-dibenzena-cyclododecaphan-12-one]: the IC50 is 101 to 1000 nM on JAK3, above 10000 nM at TYK2, 1000 to 10000 nM on JAK2 and 1000 to 10000 nM on JAK1.

Regarding `Nc1cc2ccc1-c1ccnc(n1)Nc1ccc(OCC3CCOC3)c(c1)COCCCCNC2=O` (stereo not shown) [Example 125, 1^2-amino-4^4-((tetrahydrofuran-3-yl)methoxy)-6-oxa-3,11-diaza-2(4,2)-pyrimidina-1(1,4),4(1,3)-dibenz-enacyclododecaphan-12-one], the IC50 at JAK3 was below 10 nM; on TYK2, 1000 to 10000 nM; against JAK2, 101 to 1000 nM; at JAK1 it was 101 to 1000 nM.

Consider `O=C1NCCCCOCc2cc(ccc2OCC2CC(F)(F)C2)Nc2nccc(n2)-c2ccc1cc2[N+](=O)[O-]` [Example 126, 4^4-((3,3-Difluorocyclobutyl)methoxy)-1^2-nitro-6-oxa-3,11-diaza-2(4,2)-pyrimidina-1(1,4),4(1,3)-di-benzenacyclododecaphan-12-one], for which the IC50 is 101 to 1000 nM on JAK3, above 10000 nM on TYK2, 1000 to 10000 nM against JAK2 and above 10000 nM on JAK1.

Take `Nc1cc2ccc1-c1ccnc(n1)Nc1ccc(OCC3CC(F)(F)C3)c(c1)COCCCCNC2=O` [Example 127, 1^2-Amino-4^4-((3,3-difluorocyclo-butyl)methoxy)-6-oxa-3,11-diaza-2(4,2)-pyrimidina-1(1,4),4(1,3)-di-benzenacyclododecaphan-12-one]: the IC50 at JAK3 was below 10 nM; on TYK2, 1000 to 10000 nM; against JAK2, 101 to 1000 nM; on JAK1, 1000 to 10000 nM.

With `CC1CCNC(=O)c2ccc(c([N+](=O)[O-])c2)-c2ccnc(n2)Nc2ccc(OCC3CCCC3)c(c2)COC1` (stereo not shown) [Example 128, 4^4-(cyclopentylmethoxy)-8-methyl-1^2-nitro-6-oxa-3,11-diaza-2(4,2)-pyrimidina-1(1,4),4(1,3)-dibenzena-cyclododecaphan-12-one], the IC50 on JAK3 is 101 to 1000 nM; on TYK2, above 10000 nM; against JAK2, above 10000 nM; at JAK1 it was above 10000 nM.
